This is an account of results in publication PMC4865847, “Putative histidine kinase inhibitors with antibacterial effect against multi-drug resistant clinical isolates identified by in vitro and in silico screens” (Scientific Reports, 2016).

Assay [1] concerns Klebsiella pneumoniae. Put plainly: Antibacterial susceptibility testing (MIC), K. pneumoniae. Type of assay: cell-based. The note with it: for MIC: Klebsiella pneumoniae, ATCC700603, strain ATCC 700603; for MIC K. pneumoniae ATCC700603: strain ATCC 700603. Here is the method:
(§1) Bacterial strains used in this study for antibacterial susceptibility testing (Table S5) were propagated using standard microbiological procedures. Minimal inhibitory concentrations (MICs) were determined following a standard double-dilution method. MICs were recorded as the lowest concentration of the compound where no visible growth was observed. After plating the dilutions around the MIC or growing them in fresh MH media, minimal bactericidal concentration (MBC) was recorded as the lowest concentration of the compound at which no colonies were formed or no growth was observed, respectively. For S. pneumoniae MICs were determined by adapting the standard double-dilution method to anaerobic conditions and of this microorganism (use of Todd Hewitt Yeast extract with 200 U/mL of catalase and continuous monitoring of growth).

Assay [2] addresses T1, E. coli EnvZ (Escherichia coli, UniProt P0AEJ4).
T1 construct: The catalytic portion (DHp and CA domain) of E. coli PhoR (PhoR^E), E. coli EnvZ; made in house; host or cells: E. coli RIL
Briefly: Aggregation analysis by native-PAGE, EnvZ. The note with it: 2 mM, 10% DMSO. Here is the method:
(§2) E. coli PhoR and EnvZ, and S. aureus PhoR ([…], final concentration) were prepared in kinase buffer. […] DMSO in the assays was maintained to a final concentration 10% (v/v). After 30 min of incubation at room temperature Native polyacrylamide gel electrophoresis (Native-PAGE) loading buffer was added and samples loaded. Coomassie blue staining was used for protein visualization.

Assay [3] addresses T2, HK WalK (DHp and CA domain) (Streptococcus pneumoniae, UniProt Q8DPL8).
T2 construct: WalK (amino acids from 208 to 449); N-terminal His6-3C site of vector pOPINF (own knowledge of the vector); made in house; host or cells: E. coli RIL
Put plainly: Differential scanning fluorimetry (DSF), WalK. Type of assay: binding. Here is the method:
(§3) To monitor protein unfolding, the fluorescent dye Sypro orange was used[26]. Differential scanning fluorimetry (DSF) experiments were conducted in the iCycleriQ Real Time Detection System (Bio-Rad, Hercules, CA). Solutions of 20 μl of 0.1 mg/ml protein (final concentration), 200 μM fragment cocktails or individual fragments (final concentration), 10X sypro orange (final concentration) and buffer (100 mM TrisCl pH 8, 150 mM NaCl) were added to the wells of the 96-well iCycler iQ PCR plate. The plate was heated from 20 to 85 or 99 °C at a heating rate of 1 °C/min. The fluorescent intensity was measured with Ex/Em: 490/530 nm. Prism GraphPad v.5 was used for curve fitting and statistical analysis.

Assay [4] deals with S. aureus PhoR (PhoR^S) (Staphylococcus aureus, UniProt Q2FXN7). Put plainly: Aggregation analysis by native-PAGE, PhoR^S. Particulars: 2 mM (S5 and S6 5 mM), 10% DMSO. Here is the method: as §2
S. aureus PhoR (PhoR^S), sequence (Q2FXN7 entry or part of it): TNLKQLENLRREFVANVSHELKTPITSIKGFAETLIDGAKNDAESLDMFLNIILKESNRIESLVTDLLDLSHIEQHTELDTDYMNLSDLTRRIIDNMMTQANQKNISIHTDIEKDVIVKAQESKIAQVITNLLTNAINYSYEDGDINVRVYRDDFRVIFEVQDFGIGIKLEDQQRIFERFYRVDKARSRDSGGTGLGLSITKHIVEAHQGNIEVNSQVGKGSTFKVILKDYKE
The target of assay [5] is T3, S. pneumoniae WalK (Streptococcus pneumoniae, UniProt Q8DPL8).
T3 construct: WalK (amino acids from 208 to 449); N-terminal His6-3C site of vector pOPINF (own knowledge of the vector); made in house; host or cells: E. coli RIL
T3 sequence (Q8DPL8 208-449): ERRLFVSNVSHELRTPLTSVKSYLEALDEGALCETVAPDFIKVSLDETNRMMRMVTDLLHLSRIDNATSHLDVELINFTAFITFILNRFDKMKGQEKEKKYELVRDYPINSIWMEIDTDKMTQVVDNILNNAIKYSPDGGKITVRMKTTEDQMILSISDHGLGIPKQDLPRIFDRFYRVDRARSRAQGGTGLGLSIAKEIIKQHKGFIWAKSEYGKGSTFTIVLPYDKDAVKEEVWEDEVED
Put plainly: In vitro autophosphorylation kinase assay with γ-32P-ATP, WalK. Type of assay: biochemical. In a few lines: (§4)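 Autophosphorylation, initiated with γ-32P-ATP (0.1 μCi/μl; 0.03–0.06 μM ATP final), quenched with SDS/EDTA sample buffer, resolved by SDS-PAGE and quantified by phosphor-imaging. ≈4 μM kinase, fragments up to 20 mM, pH 8.5 Tris buffer with Mg2+; DMSO-matched ligand-free controls.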

Assay [6] has as its target T4, E. coli PhoR (PhoR^E) (Escherichia coli, UniProt P08400).
T4 construct: The catalytic portion (DHp and CA domain) of E. coli PhoR (PhoR^E); made in house; host or cells: E. coli RIL
Put plainly: In vitro autophosphorylation kinase assay with γ-32P-ATP, PhoR^E. Format: biochemical. Particulars: for IC50: autophosphorylation, one time point (30 sec), 10% DMSO; for inhibition at 2000 µM: 2 mM, 30 sec, compared to negative control. Put shortly:
as §4

For assay [7], the system named is HK NblS (CA domain). Briefly: Differential scanning fluorimetry (DSF), NblS. Type of assay: binding, Synechococcus sp. PCC 7942. Here is the method:
as §3
In general terms: DSF heats the sample and reads unfolding from a dye or from intrinsic fluorescence.

Assay [8] has as its system Gram positive strains. Briefly: Antibacterial susceptibility testing, Gram positive strains (summary). Type of assay: cell-based. Here is the method: as §1
In assay [9] the test system is Gram negative strains. Put plainly: Antibacterial susceptibility testing, Gram negative strains (summary). Type of assay: cell-based. The note with it: read-out: MIC Gram negative. Here is the method: as §1
The subject of assay [10] is NCI-60 tumor cell lines. Set-up: method as in PMID 11121759. Particulars: 2.72 μg/ml (10 μM), one dose; maximum over cell lines; cited from earlier work.

Where “and” joins values, the source holds several entries; their conditions need not be identical. Equal values may be shown once. Read-outs that look alike come from different tables or passages of the source. A value given as a limit tells only on which side of the number the result lay.

T4 sequence (P08400 210-425): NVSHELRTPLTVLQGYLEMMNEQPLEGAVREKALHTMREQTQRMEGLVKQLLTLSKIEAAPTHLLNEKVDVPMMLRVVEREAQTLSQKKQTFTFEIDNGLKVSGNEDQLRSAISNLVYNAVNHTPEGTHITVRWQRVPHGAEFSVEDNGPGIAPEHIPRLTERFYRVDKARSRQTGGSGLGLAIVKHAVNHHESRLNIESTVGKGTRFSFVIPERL
T1 sequence (P0AEJ4 240-440): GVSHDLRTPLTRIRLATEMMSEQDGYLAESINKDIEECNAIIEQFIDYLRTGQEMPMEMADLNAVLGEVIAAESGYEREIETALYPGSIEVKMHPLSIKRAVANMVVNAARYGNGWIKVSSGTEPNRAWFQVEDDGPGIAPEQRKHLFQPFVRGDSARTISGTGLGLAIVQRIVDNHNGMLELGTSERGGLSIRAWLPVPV
T2 sequence (Q8DPL8 208-449): as the sequence (Q8DPL8 208-449) above

On to `Nc1nc(-c2ccc(Br)cc2)cs1` [F1, 4-(4-bromophenyl)-1,3-thiazol-2-amine], for which the MIC in assay [1] is more than 500 µg/mL. For the same compound, the “HK aggregation, EnvZ” value in assay [2] is given as “do not cause HK aggregation”. The “increase of WalK Tm” value in assay [3] worked out at 4.5 °C. Moreover, the “HK aggregation, PhoR^S” value in assay [4] is “do not cause HK aggregation”. Moreover, the IC50 was more than 2000 µM in assay [5] (autophosphorylation, one time point (30 sec), 10% DMSO, read-out: IC50 WalK); ~2000 µM and 2000 µM in [6] (read-out: IC50 PhoR^E). Moreover, in assay [5] (single concentration 5 mM, 30 sec), the “inhibitory capacity for WalK autophosphorylation activity” value is listed as “weak inhibitory capacity”. For the same compound, the “increase of NblS Tm” value in assay [7] was determined as 2.1 °C.

On to `CC(=O)Nc1cccc(-c2ccccc2Cl)c1` [S1.7, N-[3-(2-chlorophenyl)phenyl]acetamide], for which, in assay [1], the MIC is more than 500 µg/mL and the “MIC K. pneumoniae ATCC700603” value is more than 500 µg/mL. Also, in assay [4], the “HK aggregation, PhoR^S” value was “do not cause HK aggregation”. The inhibition at 2000 µM in assay [6] is more than 40%. Moreover, the IC50 in assay [6] (IC50 PhoR^E) is 100 µM and ~100 µM.

`CC[C@H](c1ccc(O)cc1)[C@@H](CC)c1ccc(F)cc1` [S1.13, 4-[(3S,4R)-4-(4-fluorophenyl)hexan-3-yl]phenol]: the MIC in assay [1] was more than 500 µg/mL; in assay [8] (summary over Gram positive strains), not below 8 µg/mL; in [9], more than 500 µg/mL. Besides, in [1], the “MIC K. pneumoniae ATCC700603” value was more than 500 µg/mL. Also, in assay [8] (Staphylococcus aureus, MRSA, summary, read-out: MBCs against Gram-positives, including multi-drug resistant MRSA), the MBC is not above 16 µg/mL. For the same compound, in assay [4], the “HK aggregation, PhoR^S” value is recorded as “do not cause HK aggregation”. In assay [6], the inhibition at 2000 µM was more than 75%. Besides, in [6] (read-out: IC50 PhoR^E), the IC50 was determined as 16 µM. Further, in assay [10], the “growth inhibition of NCI-60 cell lines” value is not above 19%.

As to `CC(C)(C)c1ccc(O)c(CNc2ccccc2)c1` [S1.14, 4-tert-butyl-2-[(phenylamino)methyl]phenol], in assay [1], the MIC is more than 500 µg/mL and the “MIC K. pneumoniae ATCC700603” value was more than 500 µg/mL. Moreover, the “HK aggregation, PhoR^S” value in assay [4] is listed as “do not cause HK aggregation”. Moreover, the inhibition at 2000 µM in assay [6] was more than 40%. Also, in [6] (read-out: IC50 PhoR^E), the IC50 is more than 2000 µM.

For orientation: MIC means the least concentration at which growth counts as inhibited. By IC50 is commonly meant the concentration that inhibits the measured activity by half. In general, inhibition refers to the relative decrease from the control value, in per cent.
